Measured values: ChEMBL document CHEMBL1154896, “Antineoplastic agents. 573. isolation and structure of papilistatin from the papilionid butterfly Byasa polyeuctes termessa” (2010)
Values after ≈ are worked out from the molar mass of the structure shown.

Tests used:
Assay type in all cases: functional
KM-20L2 = test: Cytotoxicity against human KM20L2 cells after 48 hrs by SRB assay; conditions: KM-20L2, 48 h
BXPC-3 = test: Cytotoxicity against human BxPC3 cells after 48 hrs by SRB assay; conditions: BXPC-3, 48 h
Streptococcus pneumoniae = test: Antibacterial activity against Streptococcus pneumoniae ATCC 6303
Micrococcus luteus = test: Antibacterial activity against Micrococcus luteus Presque Isle 456
Staphylococcus aureus = test: Antibacterial activity against Staphylococcus aureus ATCC 29213
Enterococcus faecalis = test: Antibacterial activity against Enterococcus faecalis ATCC 29212
Neisseria gonorrhoeae = test: Antibacterial activity against Neisseria gonorrheae ATCC 49226

MIC (Streptococcus pneumoniae): 32 µg/mL (≈ 94 µM) | MIC (Micrococcus luteus): 16 µg/mL (≈ 47 µM) | MIC (Staphylococcus aureus): 64 µg/mL (≈ 188 µM) | MIC (Enterococcus faecalis): 16 µg/mL (≈ 47 µM) | MIC (Neisseria gonorrhoeae): 8 µg/mL (≈ 23.5 µM)
SMILES: COc1cccc2c1cc(C(=O)O)c1c(C(=O)O)cc3c(c12)OCO3 [PAPILISTATIN]
GI50 (KM-20L2): 0.096 µg/mL (≈ 0.282 µM) | GI50 (BXPC-3): 0.093 µg/mL (≈ 0.273 µM)
